# From patent US20250179061A1 (SIRONAX LTD., priority 2022, published 2025)
# Counter-ions that a name gives are not always drawn.
# Tested on: HT-29 cells
# Experiment: HT-29 necroptosis cell viability assay (TNF-α/SMAC mimetic/zVAD-FMK, CellTiter-Glo)
# Format: cell-based
# Details: HT-29 cells stimulated with TNF-α (10 ng/ml), SMAC mimetic (6 μM) and zVAD-FMK (10 μM); 20 hours; CellTiter-Glo ATP luminescence; geometric mean IC50 from 10 points; read-out: Activity
# Method in brief: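 Necroptosis was triggered by TNF-α (10 ng/ml), SMAC mimetic (6 μM) and zVAD-FMK (10 μM) in serum-free medium during 20 h compound exposure (10 concentrations, threefold steps) of HT-29 cells. IC50 from duplicate dose-responses uses CellTiter-Glo ATP luminescence as viability read-out.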
row,SMILES,IC50 [nM]
1,"Cc1nc(N2C[C@@H](N)[C@@H]2C)sc1Oc1ccc(-n2ncn(Cc3c(F)cccc3F)c2=O)cc1 [Example 72, 2-(4-((2-((2S,3R)-3-amino-2-methylazetidin-1-yl)-4-methylthiazol-5-yl)oxy)phenyl)-4-(2,6-difluorobenzyl)-2,4-dihydro-3H-1,2,4-triazol-3-one]",< 100
2,"Cc1nc(C(N)=O)sc1Oc1ccc(-n2nc3n(c2=O)C(c2ccccc2)CC3F)cc1F (stereo not drawn) [Example 80, 5-(2-fluoro-4-(7-fluoro-3-oxo-5-phenyl-3,5,6,7-tetrahydro-2H-pyrrolo[2,1-c][1,2,4]triazol-2-yl)phenoxy)-4-methylthiazole-2-carboxamide]",< 100

# Same assay, conditions: Homo sapiens; HT-29 cells stimulated with TNF-α (10 ng/ml), SMAC mimetic (6 μM) and zVAD-FMK (10 μM); 20 hours; CellTiter-Glo ATP luminescence; geometric mean IC50 from 10 points; read-out: Activity
row,SMILES,IC50 [nM]
1,"Cc1nc(N2CCC(C#N)C2)sc1Oc1ccc(-n2ncn(Cc3c(F)cccc3F)c2=O)cc1 (stereo not drawn) [Example 54, 1-(5-(4-(4-(2,6-difluorobenzyl)-5-oxo-4,5-dihydro-1H-1,2,4-triazol-1-yl)phenoxy)-4-methylthiazol-2-yl)pyrrolidine-3-carbonitrile]",< 100
2,"COC1(C#N)CN(c2nc(C)c(Oc3ccc(-n4ncn(Cc5c(F)cccc5F)c4=O)cc3)s2)C1 [Example 55, 1-(5-(4-(4-(2,6-difluorobenzyl)-5-oxo-4,5-dihydro-1H-1,2,4-triazol-1-yl)phenoxy)-4-methylthiazol-2-yl)-3-methoxyazetidine-3-carbonitrile]",< 100
3,"Cc1nc(N2CCOC2=O)sc1Oc1ccc(-n2ncn(Cc3c(F)cccc3F)c2=O)cc1F [Example 56, 3-(5-(4-(4-(2,6-difluorobenzyl)-5-oxo-4,5-dihydro-1H-1,2,4-triazol-1-yl)-2-fluorophenoxy)-4-methylthiazol-2-yl)oxazolidin-2-one]",< 100
4,"Cc1nc(N2CC(C)(OC(F)(F)F)C2)sc1Oc1ccc(-n2ncn(Cc3c(F)cccc3F)c2=O)cc1 [Example 57, 4-(2,6-difluorobenzyl)-2-(4-((4-methyl-2-(3-methyl-3-(trifluoromethoxy)azetidin-1-yl)thiazol-5-yl)oxy)phenyl)-2,4-dihydro-3H-1,2,4-triazol-3-one]",< 100
5,"Cc1ncsc1Cc1ccc(-n2ncn(Cc3c(F)cccc3F)c2=O)cc1F [Example 59, 4-(2,6-difluorobenzyl)-2-(3-fluoro-4-((4-methylthiazol-5-yl)methyl)phenyl)-2,4-dihydro-3H-1,2,4-triazol-3-one]",< 100
6,"Cc1nc(N2CCC(N)(C(F)(F)F)C2)sc1Cc1ccc(-n2ncn(Cc3c(F)cccc3F)c2=O)cc1F (stereo not drawn) [Example 60, 2-(4-((2-(3-amino-3-(trifluoromethyl)pyrrolidin-1-yl)-4-methylthiazol-5-yl)methyl)-3-fluorophenyl)-4-(2,6-difluorobenzyl)-2,4-dihydro-3H-1,2,4-triazol-3-one formate]",< 100
7,"Cc1nc(N2C[C@H](C#N)[C@@H]2C)sc1Cc1ccc(-n2ncn(Cc3c(F)cccc3F)c2=O)cc1F [Example 61, (2S,3S)-1-(5-(4-(4-(2,6-difluorobenzyl)-5-oxo-4,5-dihydro-1H-1,2,4-triazol-1-yl)-2-fluorobenzyl)-4-methylthiazol-2-yl)-2-methylazetidine-3-carbonitrile formate]",< 100
8,"Cc1nc(N2CC(N)(CF)C2)sc1Cc1ccc(-n2ncn(Cc3c(F)cccc3F)c2=O)cc1F [Example 62, 2-(4-((2-(3-amino-3-(fluoromethyl)azetidin-1-yl)-4-methylthiazol-5-yl)methyl)-3-fluorophenyl)-4-(2,6-difluorobenzyl)-2,4-dihydro-3H-1,2,4-triazol-3-one trifluoroacetate]",< 100
9,"Cc1nc(N2C[C@H](C#N)[C@@H]2C)sc1Cc1ccc(-n2ncn(Cc3c(F)cccc3F)c2=O)cc1 [Example 63, (2S,3S)-1-(5-(4-(4-(2,6-difluorobenzyl)-5-oxo-4,5-dihydro-1H-1,2,4-triazol-1-yl)benzyl)-4-methylthiazol-2-yl)-2-methylazetidine-3-carbonitrile]",< 100
10,"Cc1nc(N2C[C@H](O)[C@@H]2C)sc1Cc1ccc(-n2ncn(Cc3c(F)cccc3F)c2=O)cc1 [Example 64, 4-(2,6-difluorobenzyl)-2-(4-((2-((2S,3S)-3-hydroxy-2-methylazetidin-1-yl)-4-methylthiazol-5-yl)methyl)phenyl)-2,4-dihydro-3H-1,2,4-triazol-3-one]",< 100
11,"Cc1nn(-c2ccc(Cc3ccccc3)cc2)c(=O)n1Cc1ccccc1 [Example 65, 4-benzyl-2-(4-benzylphenyl)-5-methyl-2,4-dihydro-3H-1,2,4-triazol-3-one]",< 100
12,"O=c1n(Cc2ccccc2)cnn1-c1ccc(Cc2ccccc2)cc1 [Example 66, 4-benzyl-2-(4-benzylphenyl)-2,4-dihydro-3H-1,2,4-triazol-3-one]",< 100
13,"Cc1nn(-c2ccc(N(C)c3ccccc3)cc2)c(=O)n1Cc1ccccc1 [Example 67, 4-benzyl-5-methyl-2-(4-(methyl(phenyl)amino)phenyl)-2,4-dihydro-3H-1,2,4-triazol-3-one]",100 to 1000
14,"Cc1nc(N2CC(C(C)(C)N)C2)sc1Oc1ccc(-n2ncn(Cc3c(F)cccc3F)c2=O)cc1 [Example 68, 2-(4-((2-(3-(2-aminopropan-2-yl)azetidin-1-yl)-4-methylthiazol-5-yl)oxy)phenyl)-4-(2,6-difluorobenzyl)-2,4-dihydro-3H-1,2,4-triazol-3-one]",< 100
15,"Cc1nc(N2C[C@@H](N)[C@@H]2C)sc1Oc1ccc(-n2ncn(Cc3c(F)cccc3F)c2=O)cc1 [Example 69, 2-(4-((2-((2S,3R)-3-amino-2-methylazetidin-1-yl)-4-methylthiazol-5-yl)oxy)phenyl)-4-(2,6-difluorobenzyl)-2,4-dihydro-3H-1,2,4-triazol-3-one]",< 100
16,"Cc1nc(N2CC[C@@H]2CN)sc1Oc1ccc(-n2ncn(Cc3c(F)cccc3F)c2=O)cc1 [Example 70, (R)-2-(4-((2-(2-(aminomethyl)azetidin-1-yl)-4-methylthiazol-5-yl)oxy)phenyl)-4-(2,6-difluorobenzyl)-2,4-dihydro-3H-1,2,4-triazol-3-one]",< 100
17,"Cc1nc(N2CC(N)(CO)C2)sc1Oc1ccc(-n2ncn(Cc3c(F)cccc3F)c2=O)cc1 [Example 71, 2-(4-((2-(3-amino-3-(hydroxymethyl)azetidin-1-yl)-4-methylthiazol-5-yl)oxy)phenyl)-4-(2,6-difluorobenzyl)-2,4-dihydro-3H-1,2,4-triazol-3-one]",< 100
18,"Cc1nc(N2C[C@H](N)[C@@H]2C)sc1Oc1ccc(-n2ncn(Cc3c(F)cccc3F)c2=O)cc1 [Example 73, 2-(4-((2-((2S,3S)-3-amino-2-methylazetidin-1-yl)-4-methylthiazol-5-yl)oxy)phenyl)-4-(2,6-difluorobenzyl)-2,4-dihydro-3H-1,2,4-triazol-3-one]",< 100
19,"CCOC1CN(c2nc(C)c(Oc3ccc(-n4ncn(Cc5c(F)cccc5F)c4=O)cc3)s2)C1 [Example 74, 4-(2,6-difluorobenzyl)-2-(4-((2-(3-ethoxyazetidin-1-yl)-4-methylthiazol-5-yl)oxy)phenyl)-2,4-dihydro-3H-1,2,4-triazol-3-one]",< 100
20,"Cc1nc(N2CC3(CCOCC3)C2)sc1Oc1ccc(-n2ncn(Cc3c(F)cccc3F)c2=O)cc1 [Example 75, 4-(2,6-difluorobenzyl)-2-(4-((4-methyl-2-(7-oxa-2-azaspiro[3.5]nonan-2-yl)thiazol-5-yl)oxy)phenyl)-2,4-dihydro-3H-1,2,4-triazol-3-one]",< 100
21,"Cc1nc(N2C[C@@H](O)CC2=O)sc1Oc1ccc(-n2ncn(Cc3c(F)cccc3F)c2=O)cc1F [Example 76, (S)-4-(2,6-difluorobenzyl)-2-(3-fluoro-4-((2-(4-hydroxy-2-oxopyrrolidin-1-yl)-4-methylthiazol-5-yl)oxy)phenyl)-2,4-dihydro-3H-1,2,4-triazol-3-one]",< 100
22,"N#Cc1cnc(Oc2ccc(-n3ncn(Cc4c(F)cccc4F)c3=O)cc2)s1 [Example 77, 2-(4-(4-(2,6-difluorobenzyl)-5-oxo-4,5-dihydro-1H-1,2,4-triazol-1-yl)phenoxy)thiazole-5-carbonitrile]",100 to 1000
23,"Cc1nc(Oc2ccc(-n3ncn(Cc4c(F)cccc4F)c3=O)cc2)sc1C [Example 78, 4-(2,6-difluorobenzyl)-2-(4-((4,5-dimethylthiazol-2-yl)oxy)phenyl)-2,4-dihydro-3H-1,2,4-triazol-3-one]",100 to 1000
24,"N#Cc1ncc(Oc2ccc(-n3ncn(Cc4c(F)cccc4F)c3=O)cc2)s1 [Example 79, 5-(4-(4-(2,6-difluorobenzyl)-5-oxo-4,5-dihydro-1H-1,2,4-triazol-1-yl)phenoxy)thiazole-2-carbonitrile]",< 100
25,"Cc1nc(C(N)=O)sc1Oc1ccc(-n2nc3n(c2=O)C(c2ccccc2)CC3F)cc1F (stereo not drawn) [Example 81, 5-(2-fluoro-4-(7-fluoro-3-oxo-5-phenyl-3,5,6,7-tetrahydro-2H-pyrrolo[2,1-c][1,2,4]triazol-2-yl)phenoxy)-4-methylthiazole-2-carboxamide]",< 100
26,"NC(=O)c1cnc(Oc2ccc(-n3ncn(Cc4c(F)cccc4F)c3=O)cc2)s1 [Example 82, 2-(4-(4-(2,6-difluorobenzyl)-5-oxo-4,5-dihydro-1H-1,2,4-triazol-1-yl)phenoxy)thiazole-5-carboxamide]",100 to 1000
27,"O=c1n(Cc2c(F)cccc2F)cnn1-c1ccc(Oc2nc3c(s2)CCCC3)cc1 [Example 83, 4-(2,6-difluorobenzyl)-2-(4-((4,5,6,7-tetrahydrobenzo[d]thiazol-2-yl)oxy)phenyl)-2,4-dihydro-3H-1,2,4-triazol-3-one]",100 to 1000
28,"CCOC1CN(c2ncc(Oc3ccc(-n4ncn(Cc5c(F)cccc5F)c4=O)cc3)s2)C1 [Example 84, 4-(2,6-difluorobenzyl)-2-(4-((2-(3-ethoxyazetidin-1-yl)thiazol-5-yl)oxy)phenyl)-2,4-dihydro-3H-1,2,4-triazol-3-one]",< 100
